Common to all, as to test: NCI tumour cell line growth inhibition, 48 h
Assay [1] relates to DLD-1 colon.
In assay [2] the test system is RXF-631 renal.
The test system of assay [3] is M19-MEL melanoma.
For assay [4], the system named is KM20L2 colon.
Assay [5] relates to XF 498 CNS.
Assay [6] deals with SNB-78 CNS.
The subject of assay [7] is P388/ADR leukemia.
In assay [8] the test system is P388 leukemia.
Assay [9] deals with SN12K1 renal.

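Cells were grown in 96-well plates and exposed to each compound for 48 hours at five concentrations; endpoints were interpolated linearly between bracketing concentrations, or set to the highest concentration if not reached. GI50 = concentration required for 50% inhibition of growth. Definition used: TGI = concentration required for complete inhibition of growth.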 Bounds are passed on as bounds.

On to `O=C1c2ccccc2C2C1N2C(=O)C(F)(F)F` (stereo not drawn), for which the TGI in assay [1], in assay [2], in [3], in [4] and in [5] was more than 100 µM in each case.

Consider `COc1nc(N)c(C(=O)CCl)c(=O)n1C`, for which the TGI was 27.6 µM in [1]; 31.6 µM in assay [2]; 50.1 µM in [4]; 32.6 µM in [5]; 40.2 µM in assay [6].

In the case of `CNC(=O)C(C)C1CCC2(C)C=CC(=O)C(C)=C2C1O` (stereo not drawn), the TGI in [1], in assay [7], in assay [8], in assay [9], in assay [3] and in assay [4] was more than 100 µM throughout. The TGI in assay [5] and in assay [6] was more than 100 µM in each case.

Consider `Cc1cccc2c(=O)cc(-c3ccccc3)[nH]c12`, for which the TGI was more than 100 µM in [1], more than 100 µM in assay [3], 19.4 µM in assay [4] and more than 100 µM in [5].

For `CCN(CC)CCC(=O)Nc1ccc2c(c1)C(=O)c1ccc(NC(=O)CCN(CC)CC)cc1C2=O`, the TGI in assay [1] was 10.2 µM; in assay [3], more than 100 µM; in [4], 28 µM; in [6], 48.3 µM.

Regarding `C[C@]12CC[C@H](O)CC1=CC[C@@H]1C2CC[C@]2(C)C(=O)N(N)C(=O)CC12` (stereo partly drawn), the TGI in assay [1], in assay [2], in assay [3], in [4], in [5] and in [6] was more than 100 µM throughout.

Consider `[N-]=[N+]=Nc1cc(=O)oc2ccccc12`, for which the TGI in assay [1] and in assay [3] was more than 100 µM throughout.

Take `CC(N)Cc1ccc(C(=O)Cl)cc1` (stereo not drawn): the TGI in assay [1], in [2], in assay [3], in assay [4] and in [5] was more than 100 µM in each case.

As to `Cc1cc(=O)[nH]c(NN2C(Cl)C(=O)C2c2ccccc2O)n1` (stereo not drawn), the TGI in assay [3], in assay [4] and in [6] was more than 100 µM throughout.

As for `CCCCCCCCCCCOc1ccc(C(=O)C(=O)c2ccc(OCCCCCCCCCCC)c(OCCCCCCCCCCC)c2)cc1OCCCCCCCCCCC`, the TGI in [1], in assay [3], in assay [4], in assay [5] and in assay [6] was more than 100 µM in each case.

In the case of `CC1C=C(CCCCCCCCCCCC[C@@H](O)[C@@H]2CC[C@@H]([C@@H]3CC[C@@H](C(O)CCCCCCCCCCCCC4=C[C@H](C)OC4=O)O3)O2)C(=O)O1` (stereo partly drawn), the TGI in assay [1], in assay [3], in assay [4] and in [5] was more than 100 µM in each case.

Regarding `Brc1ccc(N=c2nc3ccccn3n3nc(-c4ccccc4)cc23)cc1`, the TGI in assay [1] is 47.7 µM; in [2], more than 100 µM; in [3] it was more than 100 µM; in [4], more than 100 µM; in assay [5], 77 µM.

Take `CCC12C=CCN3CCC4(C(=C(C(=O)OC)[C@@H]1O)Nc1ccccc14)C32` (stereo partly drawn): the TGI in assay [1] is 3.36 µM; in assay [3] it was 3.61 µM; in assay [4] it was 3.54 µM; in assay [5], 3.05 µM; in assay [6], 7.35 µM.

As to `CC(=O)Nc1ccc(-c2nnc(SCC(=O)Nc3ccc([N+](=O)[O-])cc3)o2)cc1`, the TGI in [1] was 26.4 µM; in [3], 26.3 µM; in assay [4], 28.4 µM; in assay [6] it was 34.3 µM.

In the case of `CC(=O)NC1=C(NCCC(C)C)C(=O)c2ccccc2C1=O`, the TGI in assay [1], in [3], in [4], in assay [5] and in assay [6] was more than 50 µM throughout.

Regarding `CC(C)CCCCCCCCCCCCC(=O)NCC(=O)NC1C(C)OC(Nc2ncnc3c2ncn3C)C(O)C1O` (stereo not drawn), the TGI in [1], in assay [7], in assay [8], in assay [9], in assay [3] and in assay [4] was more than 100 µM each time. Moreover, the values for the TGI in assay [5] and in assay [6] were more than 62 µM and more than 100 µM, respectively.

As to `C[n+]1c2ccccc2c(/C=N\NS(=O)(=O)c2ccc(O)c(C(=O)O)c2)c2ccccc21`, the TGI in assay [1] was more than 100 µM; in assay [2], more than 100 µM; in [3], more than 100 µM; in [4] it was more than 100 µM; in [5], 83.8 µM; in assay [6], more than 100 µM.

Consider `N.N.N.N.O=[N+]([O-])[O-].[Co+3].[N-]=[N+]=[N-].[N-]=[N+]=[N-]`, for which the GI50 in assay [1], in assay [4] and in assay [6] was more than 100 µM each time. Also, the TGI in assay [1], in [4] and in [6] was more than 100 µM each time.

Regarding `CNS(=O)(=O)NNS(=O)(=O)c1ccc2ccccc2c1`, the TGI in assay [1], in assay [3], in assay [4] and in [6] was more than 100 µM throughout.

With `CN(C)CC[N+]1=Nc2cccc3cccc(c23)N1`, the TGI in assay [1] was more than 59.8 µM; in assay [2], more than 100 µM; in assay [3], more than 100 µM; in [4] it was more than 100 µM; in assay [5], more than 100 µM; in assay [6], more than 100 µM.

For `Cc1c2cnccc2c(C)c2c1c1ccccc1n2CCCN`, the TGI came to 0.847 µM in [1]; 0.707 µM in assay [7]; 0.212 µM in assay [8]; 0.831 µM in assay [9]; 0.915 µM in [3]; 0.989 µM in assay [4]. Moreover, the TGI in assay [5] is 1.4 µM; in [6], 2.23 µM.

Regarding `N#CN=C(N(Cc1ccccc1)Cc1ccccc1)N(Cc1ccccc1)Cc1ccccc1`, the TGI is more than 100 µM in [1]; more than 100 µM in assay [3]; more than 100 µM in assay [4]; 89.8 µM in assay [5]; more than 100 µM in [6].

For the origin of these results see PubChem BioAssay (NCI).
